Results taken from patent US20040059104A1, “Nucleotide mimics and their prodrugs” (priority 2002, published 2004).
pIC50, pKi: −log10 of the molar value. Like-named read-outs stand apart in the source and are kept apart here.

Experiments:
[1] = Stability assessment using cell extracts
Procedure: The stability of compounds in cell extracts was examined as follows:
Cell lysis buffer was added to cell pellets and the cells frozen and thawed 3× using dry ice. The lysis buffer (LB) was composed of the following: 50 mM Tris-HCl, pH 7.4 (100 μl/ml 10× stock), 20% glycerol (200 μl/ml), and 0.5% Triton X-100 (5 μl/ml). 100 μl of LB was added to each microfuge tube containing 10^7 frozen CEM cells. After the cells were lysed the extracts were centrifuged at high speed in a microcentrifuge for 5 minutes and the clarified cell extract transferred to a new tube. The cell stability reaction mixtures contained concentrations of buffer, magnesium, nucleotide, and cell extract as shown below:
The reaction mixtures were incubated at 37° C. At each time point, including at time zero, 12.5 μl aliquots were added to 40 μl ice-cold methanol. […] The samples were incubated in methanol for at least 60 minutes and typically overnight at −20° C. prior to further processing. The cell extracts were centrifuged at high speed in refrigerated microcentrifuge for 20 minutes and the supernatant transferred to a new tube. The extract was then dried under vacuum in a LabConco Centrivap Concentrator. The samples were then resuspended in 40 or 50 μl dH2O, filtered to remove any particulate, and analyzed by reverse phase HPLC.
The reverse phase HPLC columns used for the analysis were either a Phenomenex C18 Aqua column (2×100 mm) or the Phenomenex C18 Aqua column (3×150 mm) used with the appropriate guard column. The HPLC flow rate was either 0.2 ml/min (for the 2×100 mm column) or 0.5 ml/min (for the 3×150 mm column) with the following buffer system: 5 mM tetrabutylammonium acetate, 50 mM ammonium phosphate, and an acetonitrile gradient running from 5% up to as high as 60%. The amount of remaining parent compound at each time point was used to determine the half-life of the compound. […] Unmodified nucleoside triphosphates were used as positive controls.

[2] = Serum stability assessment
Procedure: Typically the total volume used for the experiment was 500 μl. The final concentrations of the reaction components were as follows:
The reacton mixtures were made up and incubated at 37° C. At appropriate times aliquots of 25 μl were removed and added to 65 μl ice-cold methanol. These solutions were our at −20° C. and typically overnight. After incubation samples were inutes at high speed in a microcentrifuge. The supernatant was nd the extract was dried under vacuum in a LabConco Centrivap Concentrator. The dried extracts were resuspended in dH2O and filtered to remove particulate before analysis on reverse phase HPLC.
The reverse phase HPLC columns used for the analysis were either a Phenomenex C18 Aqua column (2×100 mm) or the Phenomenex C18 Aqua column (3×150 mm) used with the appropriate guard column. The HPLC was run at 0.2 ml/min (for the 2×100 mm column) or at 0.5 ml/min (for the 3×150 mm column) with the following buffer system: 5 mM tetrabutylammonium acetate, 50 mM ammonium phosphate, and an acetonitrile gradient running from 5% up to as high as 60%. The amount of remaining parent compound at each time point was used to determine the half-life of the compound. […] Unmodified nucleoside triphosphates were used as positive controls.

Staphylococcus aureus = test: Antimicrobial assay, minimal inhibitory concentration; format: cell-based
Procedure: (§1) To examine the antimicrobial potential of the nucleotide mimics of the present invention an assay was employed that allowed the screening of a large number of compounds simultaneously. The type of bacteria chosen to screen the compounds are organisms associated with human disease and represent major groups of bacteria based on their structure and metabolism. Bacterial cultures of Escherichia coli and Staphylococcus aureus were incubated overnight at 37° C. in a shaker incubator. A lawn of each overnight bacterial culture was made by plating […] of bacteria on agar plates containing Nutrient Broth. Immediately after plating, sterile blank paper discs were put on top of the lawn and a compound was applied to each blank paper disc. Plates were then incubated overnight and examined for the inhibition of bacterial growth the following day. […] The plates were incubated overnight at 37° C. and then examined spectrophotometrically at 600 nm to determine the minimum concentration of each compound that inhibited replication of bacteria as determined by no increase in absorbance at 600 nm.

HIV-1RF = test: Anti-HIV-1 cytoprotection assay in CEM-SS cells; format: cell-based; settings: CEM-SS cells infected with HIV-1RF, MOI approximately 0.01, 6 days, MTS; read-out: CEM-SS IC50 (Anti-HIV Screening)
Procedure: (§2) ollowing paper: Structure-Activity and Cross-Resistance unodeficiency Virus Type 1-Specific ckheit, Jr. et al., Antimicrobial Agents and s were evaluated in CEM-SS cell cultures V-1RF at an MOI of approximately 0.01. At he soluble tetrazolium-based dye MTS viability and quantify compound toxicity of metabolically active cells to yield a soluble analysis of cell viability and compound
Efficacy Evaluation in CEM-SS Cells Anti-HIV-1 Cytoprotection Assay
Cell Preparation—CEM-SS cells were passaged in T-75 flasks prior to use in the antiviral assay. On the day preceding the assay, the cells were split 1:2 to assure they were in an exponential growth phase at the time of infection. Total cell and viability quantification was performed using a hemacytometer and trypan blue exclusion. Cell viability was greater than 95% for the cells to be utilized in the assay. The cells were resuspended at 5×10^4 cells/ml in tissue culture medium and added to the drug-containing microtiter plates in a volume of 50 μl.
Virus Preparation—The virus used for these tests was the lymphocytropic virus strain HIV-1RF. This virus was obtained from the NIH AIDS Research and Reference Reagent Program and was grown in CEM-SS cells for the production of stock virus pools. For each assay, a pre-titered aliquot of virus was removed from the freezer (−80° C.) and allowed to thaw slowly to room temperature in a biological safety cabinet. The virus was resuspended and diluted into tissue culture medium such that the amount of virus added to each well in a volume of 50 μl was the amount determined to give between 85 to 95% cell killing at 6 days post-infection.
(§3) At assay termination, the assay plates were stained with the soluble tetrazolium-based dye MTS (CellTiter Reagent Promega) to determine cell viability and quantify compound toxicity. MTS is metabolized by the mitochondrial enzymes of metabolically active cells to yield a soluble formazan product, allowing the rapid quantitative analysis of cell viability and compound cytotoxicity. […] At termination of the assay, 20 μL of MTS reagent was added per well. The microtiter plates were then incubated 4-6 hrs at 37° C. for the HIV cytoprotection assay; the incubation intervals were chosen based on empirically determined times for optimal dye reduction. Adhesive plate sealers were used in place of the lids, the sealed plate was inverted several times to mix the soluble formazan product and the plate was read spectrophotometrically at 490 nm with a Molecular Devices Vmax plate reader.

[3] = target: T1, HIV Reverse Transcriptase (Type B, 66 kDa subunit) (Human immunodeficiency virus type 1 group M subtype B, UniProt P04585); test: HIV Reverse Transcriptase inhibition assays (RNA-directed DNA polymerization, PicoGreen fluorescence); format: biochemical; settings: Table 1; template (homopolymer or heteropolymer RNA) not stated; read-out: Ki, Inhibition of HIV Reverse Transcriptase by Nucleotide Mimics
T1 construct: purified HIV Reverse Transcriptase (Type B, 66 kDa subunit)
Procedure: The assays employed to measure inhibition of HIV Reverse Transcriptase (HIV RT) catalyzed/RNA-directed DNA polymerization are described below. The effectiveness of the compounds of the present invention as inhibitors of HIV RT-catalyzed DNA polymerization was measured in the following assays.
This assay was used to measure the ability of the nucleotide mimics of the present invention to inhibit the enzymatic synthesis of complementary strand DNA from a DNA-primed template of homopolymeric RNA. This assay is a modification of a published procedure (Seville, et al., “Fluorometric Assay for DNA Polymerases and Reverse Transcriptase”, BioTechniques 1996, 21, 664-72).
The compounds were tested at various concentrations up to 500 μM final concentration. DNA polymerase activity was measured in a reaction buffer containing primed-RNA template and dTTP diluted to appropriate concentrations in assay buffer. Nucleotide mimics of the present invention were diluted in buffer and pipetted into the wells of a 96-well plate. The reaction was initiated by addition of enzyme and allowed to proceed at 37° C. for 10 minutes. The reaction was quenched by addition of 5 μL 0.2 M EDTA, pH 8.0.
200 μL of diluted PicoGreen dsDNA Quantitation Reagent (Molecular Probes, Inc, Eugene, Oreg.) was added to each well of a 96-well plate and incubated at room temperature for 5 minutes. Plate wells were read on a microplate fluorometer (Molecular Devices Corp., Sunnyvale, Calif.). The wells were excited at 480 nm and the fluorescence emission intensity (RFU) was measured at 520 nm. The percentage of inhibition was calculated according to the following equation:
% Inhibition=[1−(RFU in test reaction−RFU in blank)/(RFU in control reaction−RFU in blank)]×100.
Each inhibitor was titrated over an appropriate range of concentrations, and inhibition constants were determined using the following equations:
v=Vm[S]/(Km(1+[I]/Ki)+[S])
Certain compounds of the present invention were also tested to determine their ability to inhibit HIV RT-catalyzed DNA polymerization on a heteropolymeric primed-RNA template in the presence of all four natural deoxynucleotide triphosphate (dNTP) substrates. This assay is a modification of a published procedure (Parker et al., “Mechanism of Inhibition of Human Immunodeficiency Virus Type 1 Reverse Transcriptase and Human DNA Polymerases α, β, and γ by the 5′-Triphosphates of Carbovir,3′-Azido-3′-deoxythymidine,2′-3′-Dideoxyguanosine, and 3′-Deoxythymidine”, J. Biol. Chem. 1991, 266 (3), 1754-62).
HIV RT DNA polymerase activity was measured in a reaction buffer containing primed-ribosomal RNA template and dNTPs diluted to appropriate concentrations in assay buffer and pipetted into 1.5 mL microcentrifuge tubes. Nucleotide mimics of the present invention were diluted in buffer and tested at various concentrations up to 5 μM final concentration. The reaction was initiated by addition of enzyme and allowed to proceed at 42° C. for 60 to 90 minutes. The reaction was quenched by addition of 12 μL 0.2 M EDTA, pH 8.0.
50 μL each of reaction was transferred to the well of a 96-well plate (in duplicate). 200 μL of diluted PicoGreen dsDNA Quantitation Reagent was added to each well of a 96-well plate and incubated at room temperature for 5 minutes. Plate wells were read on a microplate fluorometer. The wells were excited at 480 nm and the fluorescence emission intensity (RFU) was measured at 520 nm. The percentage of inhibition and inhibition constants […] were determined for representative compounds as described above.

CEM-SS cells = test: Compound toxicity in CEM-SS cells (MTS staining); format: cell-based; settings: read-out: CEM-SS TC50
Procedure: as §2, §3

Escherichia coli = test: Antimicrobial assay, minimal inhibitory concentration; format: cell-based; settings: for MIC: Escherichia coli, read-out: E. coli MIC
Procedure: as §1

[4] = overnight at 37° C., tested 0-200 μg/ml, NA = Not active
[5] = value in brackets beside the μg/ml value

Compound	S. aureus MIC (Staphylococcus aureus; [4])	S. aureus MIC (Staphylococcus aureus; [5])	pIC50 (HIV-1RF)	pKi [3]	CC50 (CEM-SS cells)	also measured
CC(C)(C)C(=O)SCCOP(=O)(O)CP(=O)(OCCSC(=O)C(C)(C)C)OC[C@H]1O[C@@H](n2ccc(N)nc2=O)C(F)(F)[C@@H]1O (stereo partly drawn) [Compound 76, 2′-deoxy-2′,2′-difluorocytidine 5′-di-α, β-O—(S-pivaloyl-2-thioethyl)-α,β-methylenediphosphonate]	25 µg/mL	(35) μM	–	–	–	Half-Life, Cell Extract Half-Lives of Gemcitibine 5'-Methylendiphosphonate and its Prodrugs ([1]; Table 11, 50% CEM cell extract, 37° C., 500 μM, time points through 48 hours): 37 h; Half-Life, Serum Half-Lives of Gemcitibine Diphosphate Mimics and Their Prodrugs ([2]; Table 8, 50% fetal calf serum, 37° C., 500 μM, time points through 48 hours): >48 h
2′-Deoxy-2′,2′-difluorocytidine 5′-β-O—(S-pivaloyl-2-thioethyl) -α,β-methylene-diphosphonate [Compound 75]	15 µg/mL	(26) μM	–	–	–	–
3′-Azido-3′-deoxythymidine 5′-α-P-borano-β,γ-difluoromethylene-γ-O-methyltriphosphate [Compound 40]	–	–	5.40	7.16	> 200 µM	E. coli MIC (Escherichia coli; [4]): 25 to 50 µg/mL; E. coli MIC (Escherichia coli; [5]): (40-80) uM
BP(=O)(OC[C@H]1O[C@@H](n2cc(C)c(=O)[nH]c2=O)C[C@H]1N=[N+]=[N-])OP(=O)(O)C(F)(F)P(=O)(O)Oc1ccccc1 (stereo partly drawn) [Compound 42, 3′-Azido-3′-deoxythymidine 5′-α-P-borano-β,γ-difluoromethylene-γ-O-phenyltriphosphate]	–	–	5.60	6.95	32.1 µM	Half-Life, Serum Half-Lives of AZT Triphosphate Mimic Prodrugs ([2]; bovine, serum): >48 h
3′-Azido-3′-deoxythymidine 5′-α-P-borano-β,γ-diluoromethylene-γ-O-(4-nitrophenyl)triphosphate [Compound 43]	–	–	5.19	–	125 µM	–
[BH3-][P+](O)(OCC1OC(n2cc(C)c(=O)[nH]c2=O)CC1N=[N+]=[N-])OP(=O)(O)C(Cl)(Cl)P(=O)(O)O (single isomer, unassigned) [Compound 26-isomer 2, 3′-Azido-3′-deoxythymidine 5′-α-P-borano-β,γ-(dichloromethylene)triphosphate]	–	–	–	7.13	–	half-life at 500 μM ([1]; human, pH 7.4): > 48 h; half-life at 500 μM ([2]; bovine, serum, Half-Life, Serum Half-Lives of NTPs and AZT Triphosphate Mimics): 48 h; MIC (Escherichia coli; [4]): 10 µg/mL; MIC (Escherichia coli; [5]): 17.5 µM
